# Experimental data taken from paper PMC12073449, “Development of a Mechanism of Action-Reflective Cell-Based Reporter Gene Assay for Measuring Bioactivities of Therapeutic Glucagon-like Peptide-2 Analogues” (Molecules, 2025).
# Ends that are not written are not given here.
# Tested on: HEK293-GLP-2R-Luc cells
substance,measurement,setting,value
HGEGTFSSELATILDALAARDFINWLIATKITDKKKKKK-NH2 [glepaglutide],log2 (TD/Ctrl) CYP1B1,,1.052
same,log2 (TD/Ctrl) CYP4V2,,−1.198
same,log2 (TD/Ctrl) CYP4 × 1,,−1.963
same,log2 (TD/Ctrl) TRPV1,Qvalue 0.001125,−1.038
same,log2 (TD/Ctrl) NEK8,Qvalue 0.001147,−1.057
same,log2 (TD/Ctrl) METTL25,Qvalue 0.001214,−1.045
same,log2 (TD/Ctrl) ITGA8,Qvalue 0.001396,−1.102
same,log2 (TD/Ctrl) UBOX5,Qvalue 0.00141,1.051
same,log2 (TD/Ctrl) CC2D2A,Qvalue 0.001438,−1.1174
same,log2 (TD/Ctrl) DERL3,Qvalue 0.001478,−1.237
same,log2 (TD/Ctrl) ADAM12,Qvalue 0.001549,1.112
same,log2 (TD/Ctrl) RBPMS2,Qvalue 0.001565,1.069
same,log2 (TD/Ctrl) RBM11,Qvalue 0.001608,1.143
same,log2 (TD/Ctrl) SLCO2A1,Qvalue 0.001637,1.773
same,log2 (TD/Ctrl) AMH,Qvalue 0.001638,−1.122
same,log2 (TD/Ctrl) EMP1,Qvalue 0.001666,1.518
same,log2 (TD/Ctrl) RNLS,Qvalue 0.001684,2.251
same,log2 (TD/Ctrl) AATK,Qvalue 0.001714,1.156
same,log2 (TD/Ctrl) ZSWIM4,Qvalue 0.001797,1.054
same,log2 (TD/Ctrl) NGEF,Qvalue 0.001858,1.549
same,log2 (TD/Ctrl) LOC124901228,Qvalue 0.002022,−1.299
same,log2 (TD/Ctrl) HILPDA,Qvalue 0.00213,−1.215
same,log2 (TD/Ctrl) GPRASP3,Qvalue 0.002224,−1.474
same,log2 (TD/Ctrl) SRGAP3,Qvalue 0.002313,−1.063
same,log2 (TD/Ctrl) PPEF1,Qvalue 0.002369,1.543
same,log2 (TD/Ctrl) BOK,Qvalue 0.002402,1.599
same,log2 (TD/Ctrl) PRR7,Qvalue 0.002734,1.209
same,log2 (TD/Ctrl) SAT1,Qvalue 0.002832,2.416
same,log2 (TD/Ctrl) SDHAF4,Qvalue 0.002952,1.018
same,log2 (TD/Ctrl) IL7R,Qvalue 0.003482,2.4
same,log2 (TD/Ctrl) RHOB,Qvalue 0.003482,2.852
same,log2 (TD/Ctrl) CCDC61,Qvalue 0.003634,1.663
same,log2 (TD/Ctrl) H2BC21,Qvalue 0.004109,1.259
same,log2 (TD/Ctrl) CXCL12,Qvalue 0.004272,−2.422
same,log2 (TD/Ctrl) UGT3A1,Qvalue 0.004706,3.069
same,log2 (TD/Ctrl) MYPN,Qvalue 0.005296,2.401
same,log2 (TD/Ctrl) PTPRN,Qvalue 0.005327,3.046
same,log2 (TD/Ctrl) RHBDF1,Qvalue 0.005404,1.083
same,log2 (TD/Ctrl) KLF2,Qvalue 0.005739,1.928
same,log2 (TD/Ctrl) SH2D2A,Qvalue 0.005953,2.922
same,log2 (TD/Ctrl) SYT4,Qvalue 0.005991,2.338
same,log2 (TD/Ctrl) NTRK2,Qvalue 0.006147,1.454
same,log2 (TD/Ctrl) PLPP2,Qvalue 0.006233,1.309
same,log2 (TD/Ctrl) ATG16L2,Qvalue 0.006489,1.087
same,log2 (TD/Ctrl) ASGR1,Qvalue 0.00679,2.135
same,log2 (TD/Ctrl) DHRS9,Qvalue 0.007207,2.367
same,log2 (TD/Ctrl) SH2D5,Qvalue 0.00738,1.053
same,log2 (TD/Ctrl) SLC30A3,Qvalue 0.007467,1.182
same,log2 (TD/Ctrl) SHANK2,Qvalue 0.007984,2.035
same,log2 (TD/Ctrl) NAA80,Qvalue 0.008009,1.249
same,log2 (TD/Ctrl) CLIP2,Qvalue 0.008212,1.052
same,log2 (TD/Ctrl) LOC128125822,Qvalue 0.008527,2.711
same,log2 (TD/Ctrl) RND1,Qvalue 0.008622,1.057
same,log2 (TD/Ctrl) SH3RF2,Qvalue 0.008648,1.516
same,log2 (TD/Ctrl) DUSP2,Qvalue 0.008669,3.424
same,log2 (TD/Ctrl) MAGED4,Qvalue 0.009809,−1.159
same,log2 (TD/Ctrl) MAP6,Qvalue 0.009857,1.691
same,log2 (TD/Ctrl) TMEM225B,Qvalue 0.010366,1.448
same,log2 (TD/Ctrl) CHRD,Qvalue 0.010428,1.261
same,log2 (TD/Ctrl) FNTB,Qvalue 0.011191,−1.039
same,log2 (TD/Ctrl) MARVELD3,Qvalue 0.011267,1.031
same,log2 (TD/Ctrl) FSTL4,Qvalue 0.011445,1.312
same,log2 (TD/Ctrl) POC1B-GALNT4,Qvalue 0.011547,−1.319
same,log2 (TD/Ctrl) GDPGP1,Qvalue 0.011565,−1.43
same,log2 (TD/Ctrl) CREG2,Qvalue 0.012071,1.949
same,log2 (TD/Ctrl) CERS4,Qvalue 0.01208,1.131
same,log2 (TD/Ctrl) ANKRD1,Qvalue 0.012462,2.953
same,log2 (TD/Ctrl) PLEKHN1,Qvalue 0.012462,2.21
same,log2 (TD/Ctrl) KRT75,Qvalue 0.012583,2.099
same,log2 (TD/Ctrl) ALDH1L2,Qvalue 0.012744,1.303
same,log2 (TD/Ctrl) GUCA1B,Qvalue 0.013456,1.026
same,log2 (TD/Ctrl) SH2D3A,Qvalue 0.013825,1.146
same,log2 (TD/Ctrl) CATSPERE,Qvalue 0.013837,−2.496
same,log2 (TD/Ctrl) TFEB,Qvalue 0.014032,1.085
same,log2 (TD/Ctrl) SCN2A,Qvalue 0.014161,−2.494
same,log2 (TD/Ctrl) FAM47E-STBD1,Qvalue 0.014365,6.132
same,log2 (TD/Ctrl) IL11,Qvalue 0.014439,2.543
same,log2 (TD/Ctrl) ICOSLG,Qvalue 0.015122,1.337
same,log2 (TD/Ctrl) HHIP,Qvalue 0.016047,1.114
same,log2 (TD/Ctrl) COL15A1,Qvalue 0.016322,2.733
same,log2 (TD/Ctrl) ADAMTSL1,Qvalue 0.016921,1.769
same,log2 (TD/Ctrl) AJM1,Qvalue 0.017304,−1.327
same,log2 (TD/Ctrl) RASGRP3,Qvalue 0.017723,1.426
same,log2 (TD/Ctrl) ZNF233,Qvalue 0.018109,−1.102
same,log2 (TD/Ctrl) ADM2,Qvalue 0.018318,1.127
same,log2 (TD/Ctrl) FMNL1,Qvalue 0.018333,1.446
same,log2 (TD/Ctrl) PHF24,Qvalue 0.018911,1.839
same,log2 (TD/Ctrl) MAP2,Qvalue 0.019619,−1.138
same,log2 (TD/Ctrl) BCL3,Qvalue 0.020272,1.728
same,log2 (TD/Ctrl) EXO5,Qvalue 0.020878,−1.023
same,log2 (TD/Ctrl) POLN,Qvalue 0.020952,−1.364
same,log2 (TD/Ctrl) C20orf204,Qvalue 0.021231,−1.777
